According to ChEMBL document CHEMBL5724914, “Linking interpersonal differences in gut microbiota composition and drug biotransformation activity” (2024):

settings: human gut metagenome, 24 h, 2 µM
Note: call rule not given here.

Row | Bacterial Biotransformation | SMILES
1 | Compound NOT metabolized | CC(CCc1ccccc1)NCC(O)c1ccc(O)c(C(N)=O)c1 (stereo not given) [LABETALOL]
2 | Compound NOT metabolized | Nc1nnc(-c2cccc(Cl)c2Cl)c(N)n1 [LAMOTRIGINE]

settings: human gut metagenome, 24 h, 2 µM; remark: another data set of the same source

Row | Bacterial Biotransformation | SMILES
3 | Compound NOT metabolized | CC(CCc1ccccc1)NCC(O)c1ccc(O)c(C(N)=O)c1 (stereo not given) [LABETALOL]
4 | Compound metabolized | Nc1nnc(-c2cccc(Cl)c2Cl)c(N)n1 [LAMOTRIGINE]

settings: human gut metagenome, 24 h, 2 µM; remark: another data set of the same source

Row | Bacterial Biotransformation | SMILES
5 | Compound NOT metabolized | CC(CCc1ccccc1)NCC(O)c1ccc(O)c(C(N)=O)c1 (stereo not given) [LABETALOL]
6 | Compound NOT metabolized | Nc1nnc(-c2cccc(Cl)c2Cl)c(N)n1 [LAMOTRIGINE]

assay: (§1) The drug is tested on Z-003 corresponding to pig gut metagenome with ENA study accession number: PRJEB37062 and ENA sample accession number: ERS12561803 for biotransformation under anaerobic condition. The drug concentrations were measured over 9 timepoints collected between 0 and 24 hours of incubation by liquid-chromatography-coupled mass spectrometry (LC–MS); settings: 2 µM

Row | Bacterial Biotransformation | SMILES
7 | Compound NOT metabolized | CC(CCc1ccccc1)NCC(O)c1ccc(O)c(C(N)=O)c1 (stereo not given) [LABETALOL]
8 | Compound NOT metabolized | Nc1nnc(-c2cccc(Cl)c2Cl)c(N)n1 [LAMOTRIGINE]

settings: human gut metagenome, 24 h, 2 µM; remark: another data set of the same source

Row | Bacterial Biotransformation | SMILES
9 | Compound metabolized | CC(CCc1ccccc1)NCC(O)c1ccc(O)c(C(N)=O)c1 (stereo not given) [LABETALOL]
10 | Compound metabolized | Nc1nnc(-c2cccc(Cl)c2Cl)c(N)n1 [LAMOTRIGINE]

settings: human gut metagenome, 24 h, 2 µM; remark: another data set of the same source

Row | Bacterial Biotransformation | SMILES
11 | Compound metabolized | CC(CCc1ccccc1)NCC(O)c1ccc(O)c(C(N)=O)c1 (stereo not given) [LABETALOL]
12 | Compound NOT metabolized | Nc1nnc(-c2cccc(Cl)c2Cl)c(N)n1 [LAMOTRIGINE]

settings: human gut metagenome, 24 h, 2 µM; remark: another data set of the same source

Row | Bacterial Biotransformation | SMILES
13 | Compound NOT metabolized | CC(CCc1ccccc1)NCC(O)c1ccc(O)c(C(N)=O)c1 (stereo not given) [LABETALOL]
14 | Compound NOT metabolized | Nc1nnc(-c2cccc(Cl)c2Cl)c(N)n1 [LAMOTRIGINE]

settings: human gut metagenome, 24 h, 2 µM; remark: another data set of the same source

Row | Bacterial Biotransformation | SMILES
15 | Compound NOT metabolized | CC(CCc1ccccc1)NCC(O)c1ccc(O)c(C(N)=O)c1 (stereo not given) [LABETALOL]
16 | Compound NOT metabolized | Nc1nnc(-c2cccc(Cl)c2Cl)c(N)n1 [LAMOTRIGINE]

assay: as §1, with “Z-030” for “Z-003”, “mouse” for “pig”, “ERS12561829” for “ERS12561803”; settings: 2 µM

Row | Bacterial Biotransformation | SMILES
17 | Compound NOT metabolized | CC(CCc1ccccc1)NCC(O)c1ccc(O)c(C(N)=O)c1 (stereo not given) [LABETALOL]
18 | Compound NOT metabolized | Nc1nnc(-c2cccc(Cl)c2Cl)c(N)n1 [LAMOTRIGINE]

assay: as §1, with “WLS-077” for “Z-003”, “human” for “pig”, “ERS12561750” for “ERS12561803”; settings: 2 µM

Row | Bacterial Biotransformation | SMILES
19 | Compound NOT metabolized | CC(CCc1ccccc1)NCC(O)c1ccc(O)c(C(N)=O)c1 (stereo not given) [LABETALOL]
20 | Compound NOT metabolized | Nc1nnc(-c2cccc(Cl)c2Cl)c(N)n1 [LAMOTRIGINE]

assay: as §1, with “Z-020” for “Z-003”, “rabbit” for “pig”, “ERS12561819” for “ERS12561803”; settings: 2 µM

Row | Bacterial Biotransformation | SMILES
21 | Compound NOT metabolized | CC(CCc1ccccc1)NCC(O)c1ccc(O)c(C(N)=O)c1 (stereo not given) [LABETALOL]
22 | Compound NOT metabolized | Nc1nnc(-c2cccc(Cl)c2Cl)c(N)n1 [LAMOTRIGINE]

assay: as §1, with “Z-008” for “Z-003”, “to” for “to pig gut”, “ERS12561808” for “ERS12561803”; settings: 2 µM

Row | Bacterial Biotransformation | SMILES
23 | Compound NOT metabolized | CC(CCc1ccccc1)NCC(O)c1ccc(O)c(C(N)=O)c1 (stereo not given) [LABETALOL]
24 | Compound NOT metabolized | Nc1nnc(-c2cccc(Cl)c2Cl)c(N)n1 [LAMOTRIGINE]

assay: as §1, with “Z-026” for “Z-003”, “to” for “to pig gut”, “ERS12561825” for “ERS12561803”; settings: 2 µM

Row | Bacterial Biotransformation | SMILES
25 | Compound NOT metabolized | CC(CCc1ccccc1)NCC(O)c1ccc(O)c(C(N)=O)c1 (stereo not given) [LABETALOL]
26 | Compound NOT metabolized | Nc1nnc(-c2cccc(Cl)c2Cl)c(N)n1 [LAMOTRIGINE]

settings: human gut metagenome, 24 h, 2 µM; remark: another data set of the same source

Row | Bacterial Biotransformation | SMILES
27 | Compound NOT metabolized | CC(CCc1ccccc1)NCC(O)c1ccc(O)c(C(N)=O)c1 (stereo not given) [LABETALOL]
28 | Compound metabolized | Nc1nnc(-c2cccc(Cl)c2Cl)c(N)n1 [LAMOTRIGINE]

settings: human gut metagenome, 24 h, 2 µM; remark: another data set of the same source

Row | Bacterial Biotransformation | SMILES
29 | Compound metabolized | CC(CCc1ccccc1)NCC(O)c1ccc(O)c(C(N)=O)c1 (stereo not given) [LABETALOL]
30 | Compound NOT metabolized | Nc1nnc(-c2cccc(Cl)c2Cl)c(N)n1 [LAMOTRIGINE]

assay: as §1, with “WLS-220” for “Z-003”, “human” for “pig”, “ERS12561769” for “ERS12561803”; settings: 2 µM

Row | Bacterial Biotransformation | SMILES
31 | Compound NOT metabolized | CC(CCc1ccccc1)NCC(O)c1ccc(O)c(C(N)=O)c1 (stereo not given) [LABETALOL]
32 | Compound NOT metabolized | Nc1nnc(-c2cccc(Cl)c2Cl)c(N)n1 [LAMOTRIGINE]

settings: human gut metagenome, 24 h, 2 µM; remark: another data set of the same source

Row | Bacterial Biotransformation | SMILES
33 | Compound NOT metabolized | CC(CCc1ccccc1)NCC(O)c1ccc(O)c(C(N)=O)c1 (stereo not given) [LABETALOL]
34 | Compound NOT metabolized | Nc1nnc(-c2cccc(Cl)c2Cl)c(N)n1 [LAMOTRIGINE]

settings: human gut metagenome, 24 h, 2 µM; remark: another data set of the same source

Row | Bacterial Biotransformation | SMILES
35 | Compound NOT metabolized | CC(CCc1ccccc1)NCC(O)c1ccc(O)c(C(N)=O)c1 (stereo not given) [LABETALOL]
36 | Compound metabolized | Nc1nnc(-c2cccc(Cl)c2Cl)c(N)n1 [LAMOTRIGINE]

assay: as §1, with “WLS-007” for “Z-003”, “human” for “pig”, “ERS12561742” for “ERS12561803”; settings: 2 µM

Row | Bacterial Biotransformation | SMILES
37 | Compound NOT metabolized | CC(CCc1ccccc1)NCC(O)c1ccc(O)c(C(N)=O)c1 (stereo not given) [LABETALOL]
38 | Compound NOT metabolized | Nc1nnc(-c2cccc(Cl)c2Cl)c(N)n1 [LAMOTRIGINE]

assay: as §1, with “WLS-310” for “Z-003”, “human” for “pig”, “ERS12561785” for “ERS12561803”; settings: 2 µM

Row | Bacterial Biotransformation | SMILES
39 | Compound NOT metabolized | CC(CCc1ccccc1)NCC(O)c1ccc(O)c(C(N)=O)c1 (stereo not given) [LABETALOL]
40 | Compound NOT metabolized | Nc1nnc(-c2cccc(Cl)c2Cl)c(N)n1 [LAMOTRIGINE]
